Drawing on patent publication US20240059691A1 (KALVISTA PHARMACEUTICALS LIMITED, priority 2020, published 2024), this text covers half-life, bioavailability and IC50 for 17 compounds.

Data set [1] in a line: Pharmacokinetics following a single intravenous dose and a single oral dose in male Sprague-Dawley rats (oral bioavailability, half-life). It is filed as in vivo. The following applies: rat, plasma, 10% DMSO/10% Cremophor EL/80% SWFI; for bioavailability: read-out: F % (oral bioavailability). The method, then: Pharmacokinetic studies of the compounds in Table 16 were performed to assess the pharmacokinetics following a single intravenous dose and a single oral dose in male Sprague-Dawley rats. Two rats were given a single intravenous dose of 1 mL/kg of a nominal 1 mg/mL (1 mg/kg) composition of test compound in 10% DMSO/10% Cremophor EL/80% SWFI vehicle. Example 2191 was dosed at 1 mL/kg of a nominal 2 mg/mL (2 mg/kg) using the same vehicle.
Two rats were given a single oral dose of 5 mL/kg of a nominal 1 mg/mL (5 mg/kg) composition of test compound in 10% DMSO/10% Cremophor EL/80% SWFI vehicle. Example 2191 was dosed at 5 mL/kg of a nominal 2 mg/mL (10 mg/kg) using the same vehicle.
Following intravenous dosing, blood samples were collected over a period of 12 h. Sample times were 2, 5, 15 and 30 min then 1, 2, 4, 6, and 12 h. Following oral dosing, blood samples were collected over a period of 24 h. Sample times were 5, 15 and 30 min then 1, 2, 4, 6, 8, 12 and 24 h.
Following collection, blood samples were centrifuged and the plasma fraction analysed for concentration of test compound by LCMS. Oral bioavailability and half-life calculations from these studies were obtained using Phoenix WinNonlin (v8.0) and are shown below: […]

For the next data set, the target named is Plasma Kallikrein (Homo sapiens (Human), UniProt P03952). As to the kind of experiment: Determination of related protease inhibition: Plasma Kallikrein (fluorogenic substrate at Km). The data set is classed as biochemical. The following applies: 25° C., read-out: IC50 (human PKal). The gist of the method:
(§1)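 IC50 values derive from the linear rate of fluorescence increase, normalised to uninhibited enzyme as 100% activity. Each human protease was run against its fluorogenic substrate at Km concentration with varying compound levels, with product fluorescence followed over 5 min at 25 °C.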

The next data set addresses Human Factor XIIa (Homo sapiens (Human), UniProt P00748). As to the kind of experiment: Determination of FXIIa inhibition (fluorogenic substrate H-DPro-Phe-Arg-AFC, IC50 assay). The note with it: substrate H-DPro-Phe-Arg-AFC at Km, 25° C.; class scale A-G. It is filed as biochemical. The gist of the method: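 IC50 derived from % remaining activity, taken as the linear fluorescence rate over a 5 min read at 25° C. Substrate H-DPro-Phe-Arg-AFC was used at its Km (Michaelis-Menten) with human FXIIa and serial compound dilutions, 25° C.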

In another data set the target is KLK1 (Homo sapiens (Human), UniProt P06870). Put plainly: Determination of related protease inhibition: KLK1 (fluorogenic substrate at Km). It is filed as biochemical. The note with it: 25° C. The essentials: as §1
Another data set concerns the target FXIa (Homo sapiens (Human), UniProt P03951). Put plainly: Determination of related protease inhibition: FXIa (fixed substrate concentration of 100 μM). It is filed as biochemical. The following applies: 25° C. As for the experimental part:
Determination of Related Protease Inhibition
In vitro inhibition of related proteases was determined using an ([…] assay based on standard literature methods (see e.g. Shori et al., Biochem. Pharmacol., 1992, 43, 1209; Bouckaert et al., European Journal of Medicinal Chemistry 110 (2016) 181). Human serine protease enzymes Plasma Kallikrein, KLK1, FXa, Plasmin, Thrombin and Trypsin were assayed for enzymatic activity using an appropriate fluorogenic substrate at Km concentration, FXIa at fixed substrate concentration of 100 μM, and various concentrations of the test compound. Protease activity was measured by monitoring the accumulation of liberated fluorescence from the substrate over […]. The linear rate of fluorescence increase per minute was expressed as percentage (%) activity. IC50 values were calculated as the concentration of inhibitor giving 50% inhibition of the uninhibited enzyme activity (100%).

The next data set has as its target Thrombin (Homo sapiens (Human), UniProt P00734). Put plainly: Determination of related protease inhibition: Thrombin (fluorogenic substrate at Km). The data set is classed as biochemical. The note with it: 25° C. The gist of the method: as §1
The target in the next data set is FXa (Homo sapiens (Human), UniProt P00742). Put plainly: Determination of related protease inhibition: FXa (fluorogenic substrate at Km). It is filed as biochemical. The following applies: 25° C. The gist of the method:
as §1

Chain of KLK1 (P06870 25-262): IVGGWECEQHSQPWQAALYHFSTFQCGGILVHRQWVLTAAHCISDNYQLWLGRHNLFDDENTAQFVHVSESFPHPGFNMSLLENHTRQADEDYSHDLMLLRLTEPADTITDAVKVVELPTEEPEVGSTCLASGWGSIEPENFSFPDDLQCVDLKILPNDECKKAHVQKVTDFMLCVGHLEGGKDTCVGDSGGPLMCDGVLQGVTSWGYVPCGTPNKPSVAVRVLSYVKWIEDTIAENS
Chain of FXa (P00742 235-488): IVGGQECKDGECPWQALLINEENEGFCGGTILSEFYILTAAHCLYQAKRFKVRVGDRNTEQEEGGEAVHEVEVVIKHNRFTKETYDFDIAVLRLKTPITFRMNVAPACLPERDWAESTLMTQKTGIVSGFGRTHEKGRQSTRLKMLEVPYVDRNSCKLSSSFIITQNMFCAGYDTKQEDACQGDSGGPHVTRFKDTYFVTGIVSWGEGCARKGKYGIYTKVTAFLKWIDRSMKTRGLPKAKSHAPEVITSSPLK
Chain of FXa (P00742 41-179 partner): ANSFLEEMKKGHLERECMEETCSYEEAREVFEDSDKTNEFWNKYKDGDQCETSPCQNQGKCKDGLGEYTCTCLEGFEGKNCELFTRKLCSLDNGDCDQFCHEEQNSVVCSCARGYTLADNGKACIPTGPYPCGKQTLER
Chain of FXIa (P03951 388-625): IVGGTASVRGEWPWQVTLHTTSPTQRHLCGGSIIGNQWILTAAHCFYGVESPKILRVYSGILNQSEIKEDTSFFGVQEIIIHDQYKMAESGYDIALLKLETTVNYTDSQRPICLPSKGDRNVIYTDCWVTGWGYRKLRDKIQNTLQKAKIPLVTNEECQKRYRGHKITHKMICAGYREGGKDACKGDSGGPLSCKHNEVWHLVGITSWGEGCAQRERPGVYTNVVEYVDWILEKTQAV
Chain of FXIa (P03951 19-387 partner): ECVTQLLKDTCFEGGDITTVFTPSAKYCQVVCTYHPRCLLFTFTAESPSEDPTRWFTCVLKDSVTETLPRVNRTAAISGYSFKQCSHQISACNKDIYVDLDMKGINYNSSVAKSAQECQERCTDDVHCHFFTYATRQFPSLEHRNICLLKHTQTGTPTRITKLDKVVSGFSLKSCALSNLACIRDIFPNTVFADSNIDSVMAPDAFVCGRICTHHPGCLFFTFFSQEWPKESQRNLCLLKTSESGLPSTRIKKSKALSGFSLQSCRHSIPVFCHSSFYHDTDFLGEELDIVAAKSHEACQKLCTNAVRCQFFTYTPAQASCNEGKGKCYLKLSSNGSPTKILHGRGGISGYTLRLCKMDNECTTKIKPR
Chain of Human Factor XIIa (P00748 373-615): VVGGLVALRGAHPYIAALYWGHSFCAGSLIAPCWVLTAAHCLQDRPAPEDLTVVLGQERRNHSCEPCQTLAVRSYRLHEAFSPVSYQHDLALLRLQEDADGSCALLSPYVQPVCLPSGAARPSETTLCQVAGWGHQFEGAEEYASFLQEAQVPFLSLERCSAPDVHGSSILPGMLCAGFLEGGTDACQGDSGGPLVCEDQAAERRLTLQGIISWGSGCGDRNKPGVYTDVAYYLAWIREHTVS
Chain of Plasma Kallikrein (P03952 391-638): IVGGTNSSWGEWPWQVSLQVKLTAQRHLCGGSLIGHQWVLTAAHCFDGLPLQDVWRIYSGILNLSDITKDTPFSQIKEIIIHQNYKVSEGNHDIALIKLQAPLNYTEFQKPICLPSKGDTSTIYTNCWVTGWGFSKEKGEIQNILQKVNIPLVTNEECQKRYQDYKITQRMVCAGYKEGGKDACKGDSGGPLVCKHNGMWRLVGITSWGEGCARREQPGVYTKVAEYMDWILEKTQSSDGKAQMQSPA
Chain of Plasma Kallikrein (P03952 20-390 partner): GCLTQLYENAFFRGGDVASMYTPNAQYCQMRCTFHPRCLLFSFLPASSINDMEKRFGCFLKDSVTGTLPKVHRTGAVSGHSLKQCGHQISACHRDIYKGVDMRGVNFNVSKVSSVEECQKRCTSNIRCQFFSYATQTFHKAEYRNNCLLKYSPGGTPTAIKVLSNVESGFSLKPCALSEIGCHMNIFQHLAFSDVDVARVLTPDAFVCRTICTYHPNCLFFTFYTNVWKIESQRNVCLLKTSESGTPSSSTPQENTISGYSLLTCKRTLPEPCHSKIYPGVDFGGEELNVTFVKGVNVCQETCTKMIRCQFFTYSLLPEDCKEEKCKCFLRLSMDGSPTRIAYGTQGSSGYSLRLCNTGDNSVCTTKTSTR

As a reminder, the half-life is how long it takes for the measured level to halve. High values mean slow decline, low ones rapid decline. Usually bioavailability stands for the share of a dose that reaches the circulation, judged against a reference dose that is usually intravenous. By IC50 is commonly meant the concentration at which inhibition is half-maximal. Consider `Cn1ccc(COc2cc(CNc3cccc4c(N)nccc34)ccn2)cc1=O` [Example 4301, 4-[[4-[[(1-Amino-5-isoquinolyl)amino]methyl]-2-pyridyl]oxymethyl]-1-methyl-pyridin-2-one], for which, in data set [1], the half-life was determined as 2.19 h and the bioavailability came out at 8.5%. Moreover, the IC50 on Plasma Kallikrein was above 4 µM. This compound had a half-inhibitory concentration (IC50) against Human Factor XIIa of 0.3 to 1 µM.
`Cc1cc(N2CCn3c(nnc3C(F)(F)F)C2C)ncc1CNc1cccc2c(N)nccc12` (single isomer, unassigned) [Example 1305, (S*)-N5-((4-methyl-6-(8-methyl-3-(trifluoromethyl)-5,6-dihydro-[1,2,4]triazolo[4,3-a]pyrazin-7(8H)-yl)pyridin-3-yl)methyl)isoquinoline-1,5-diamine] yielded an IC50 against KLK1 above 4 µM. In data set [1], the half-life amounted to 4.04 h and the bioavailability came out at 79.4%. For the same compound, at Human Factor XIIa, the IC50 lay within 0.01 to 0.1 µM.
For `Nc1nccc2c(NCc3ccnc(OCC4CCn5ccnc5C4)c3)cccc12` (stereo not shown) [Example 4298, N5-((2-((5,6,7,8-tetrahydroimidazo[1,2-a]pyridin-7-yl)methoxy)pyridin-4-yl)methyl)isoquinoline-1,5-diamine], the 50% inhibitory concentration (IC50) is 10 to 40 µM on FXIa; 3 to 10 µM on KLK1; above 40 µM at Plasma Kallikrein; above 40 µM at Thrombin; 0.01 to 0.1 µM against Human Factor XIIa.
With `CC(C)N1CC2(CN(Cc3ccc(CNc4ccc5c(N)nccc5c4)c(F)c3)C2)C1` [Example 1037, 6-N-{[2-fluoro-4-({6-isopropyl-2,6-diazaspiro[3.3]heptan-2-yl}methyl)phenyl]methyl}isoquinoline-1,6-diamine], the half-inhibitory concentration (IC50) at FXIa is above 40 µM; against KLK1, 3 to 10 µM; on Plasma Kallikrein, 10 to 40 µM; on Thrombin, 10 to 40 µM; against FXa, above 40 µM; against Human Factor XIIa, 0.3 to 1 µM.
In the case of `Cc1cc(N2CCn3c(nnc3C(F)(F)F)C2)ncc1CNc1cccc2c(N)nccc12` [Example 1282, N5-((4-Methyl-6-(3-(trifluoromethyl)-5,6-dihydro-[1,2,4]triazolo[4,3-a]pyrazin-7(8H)-yl)pyridin-3-yl)methyl)isoquinoline-1,5-diamine], the half-maximal inhibitory concentration (IC50) on KLK1 is 3 to 10 µM; on Plasma Kallikrein, above 40 µM; against FXa it was above 4 µM; against Human Factor XIIa it was 0.01 to 0.1 µM. Further, the half-life in data set [1] turned out to be 2.34 h. In addition, the bioavailability in data set [1] is 53.2%.
On to `CN1CCC(CCc2ccc(CNc3ccc4c(N)nccc4c3)cc2)CC1` [Example 2177, N6-(4-(2-(1-methylpiperidin-4-yl)ethyl)benzyl)isoquinoline-1,6-diamine], for which the IC50 on FXIa was above 40 µM; at Plasma Kallikrein it was 1 to 3 µM; at Thrombin it was 3 to 10 µM; against FXa, 3 to 10 µM; against Human Factor XIIa, 0.1 to 0.3 µM.
For the compound `CN1CCC(OCc2ccc(CNc3ccc4c(N)nccc4c3)c(Cl)c2)CC1` [Example 2192, N6-(2-chloro-4-(((1-methylpiperidin-4-yl)oxy)methyl)benzyl)isoquinoline-1,6-diamine], the IC50 against FXIa is above 40 µM; at Plasma Kallikrein it was 3 to 10 µM; against Thrombin, 3 to 10 µM; on FXa it was 1 to 3 µM; against Human Factor XIIa, 0.1 to 0.3 µM.
On to `CC(C)N1C[C@H]2C[C@@H]1CN2CCc1ccc(CNc2cccc3c(N)nccc23)c(F)c1` (stereo in doubt) [Example 2213, N5-[[2-fluoro-4-[2-[(1R,4R)-5-isopropyl-2,5-diazabicyclo[2.2.1]heptan-2-yl]ethyl]phenyl]methyl]isoquinoline-1,5-diamine], for which the IC50 against FXIa was above 40 µM; against KLK1, 10 to 40 µM; at Plasma Kallikrein, 10 to 40 µM; against Thrombin it was above 40 µM; at FXa it was above 40 µM; against Human Factor XIIa, 0.1 to 0.3 µM.
On to `CN1CCC(CCc2ccc(CNc3cccc4c(N)nccc34)cc2)CC1` [Example 2178, 5-N-({4-[2-(1-methylpiperidin-4-yl)ethyl]phenyl}methyl)isoquinoline-1,5-diamine], for which the 50% inhibitory concentration (IC50) against FXIa was above 40 µM; at Plasma Kallikrein it was 10 to 40 µM; on Thrombin, above 40 µM; against FXa, above 40 µM; on Human Factor XIIa, 0.01 to 0.1 µM.
For the compound `CN1CCC(CCn2cc(CNc3ccc4c(N)nccc4c3)cn2)CC1` [Example 3254, N6-((1-(2-(1-methylpiperidin-4-yl)ethyl)-1H-pyrazol-4-yl)methyl)isoquinoline-1,6-diamine], the IC50 against FXIa was above 20 µM; on Plasma Kallikrein, 3 to 10 µM; against Thrombin, 3 to 10 µM; at FXa it was 3 to 10 µM; at Human Factor XIIa, 0.3 to 1 µM.
As to `CC(C)N1CCC(COc2cc(CNc3cccc4c(N)nccc34)ccn2)CC1` [Example 4299, N5-[[2-[(1-isopropyl-4-piperidyl)methoxy]-4-pyridyl]methyl]isoquinoline-1,5-diamine], in data set [1], the half-life was determined as 10.1 h and the bioavailability was 8.3%. Further, the IC50 on Plasma Kallikrein was above 4 µM. At Human Factor XIIa, this compound returned an IC50 of 0.1 to 0.3 µM.
On to `CN1CCC(COc2ccc(CNc3cccc4c(N)nccc34)cn2)CC1` [Example 1009, N5-((6-((1-methylpiperidin-4-yl)methoxy)pyridin-3-yl)methyl)isoquinoline-1,5-diamine], for which the IC50 against FXIa is above 40 µM; at Plasma Kallikrein, 3 to 10 µM; against Thrombin it was above 40 µM; against FXa it was above 40 µM; against Human Factor XIIa it was 0.1 to 0.3 µM.
As to `Nc1nccc2cc(NCc3ccc(OCC4CCn5ccnc5C4)nc3)ccc12` (stereo not shown) [Example 1006, N6-((6-((5,6,7,8-tetrahydroimidazo[1,2-a]pyridin-7-yl)methoxy)pyridin-3-yl)methyl)isoquinoline-1,6-diamine], the concentration for half-maximal inhibition (IC50) against FXIa is above 40 µM; on Plasma Kallikrein, 1 to 3 µM; against Thrombin it was 3 to 10 µM; on FXa it was 1 to 3 µM; against Human Factor XIIa, 0.1 to 0.3 µM.
`Nc1nccc2cc(NCc3ccc(COC4CCN(CC(F)F)CC4)cc3)ccc12` [Example 2196, 6-N-{[4-({[1-(2,2-difluoroethyl)piperidin-4-yl]oxy}methyl)phenyl]methyl}isoquinoline-1,6-diamine]: the concentration for half-maximal inhibition (IC50) on FXIa is above 40 µM; at Plasma Kallikrein, 10 to 40 µM; against Thrombin, 10 to 40 µM; at FXa, 10 to 40 µM; against Human Factor XIIa, 1 to 3 µM.
Turning to `CC(C)N1CCC(COc2ccc(CNc3ccc4c(N)nccc4c3)cn2)CC1` [Example 1012, N6-((6-((1-isopropylpiperidin-4-yl)methoxy)pyridin-3-yl)methyl)isoquinoline-1,6-diamine], the IC50 at FXIa is above 20 µM; at Plasma Kallikrein it was 1 to 3 µM; against Thrombin, 3 to 10 µM; at FXa it was 10 to 40 µM; on Human Factor XIIa, 0.1 to 0.3 µM.
The like results for `CN1CCC(COc2cc(CNc3ccc4c(N)nccc4c3)ccn2)CC1` [Example 4261, N6-((2-((1-methylpiperidin-4-yl)methoxy)pyridin-4-yl)methyl)isoquinoline-1,6-diamine] were, in that order, above 20 µM, 3 to 10 µM, 3 to 10 µM, 0.3 to 1 µM and 0.01 to 0.1 µM.
The like results for `CCN1CCC(OCc2ccc(CNc3ccc4c(N)nccc4c3)c(F)c2)CC1` [Example 2202, 6-N-[(4-{[(1-ethylpiperidin-4-yl)oxy]methyl}-2-fluorophenyl)methyl]isoquinoline-1,6-diamine] were, in that order, above 20 µM, 1 to 3 µM, 3 to 10 µM, 3 to 10 µM and 0.1 to 0.3 µM.
